Source: publication PMC8073719, “Biochemical and Biophysical Characterization of Recombinant Human 3-Phosphoglycerate Dehydrogenase” (International Journal of Molecular Sciences, 2021)
Several values for one entry are separate records, joined by “and”; a condition that tells them apart may be missing. Equal entries are not always repeated. Entries after “also recorded” stand apart in the source; their conditions may differ. Where two headings read alike, the source gives them in different places.

Assays:
[1] = target: T1, hPHGDH (Homo sapiens, UniProt O43175); test: hPHGDH forward reaction kinetics (PSAT-coupled or hydrazine assay, NADH fluorescence); assay type: biochemical; parameters: His-tagged full-length hPHGDH was expressed in BL21(DE3) E. coli cells; made in house; host or cells: E. coli BL21(DE3)
T1 sequence (O43175 1-533): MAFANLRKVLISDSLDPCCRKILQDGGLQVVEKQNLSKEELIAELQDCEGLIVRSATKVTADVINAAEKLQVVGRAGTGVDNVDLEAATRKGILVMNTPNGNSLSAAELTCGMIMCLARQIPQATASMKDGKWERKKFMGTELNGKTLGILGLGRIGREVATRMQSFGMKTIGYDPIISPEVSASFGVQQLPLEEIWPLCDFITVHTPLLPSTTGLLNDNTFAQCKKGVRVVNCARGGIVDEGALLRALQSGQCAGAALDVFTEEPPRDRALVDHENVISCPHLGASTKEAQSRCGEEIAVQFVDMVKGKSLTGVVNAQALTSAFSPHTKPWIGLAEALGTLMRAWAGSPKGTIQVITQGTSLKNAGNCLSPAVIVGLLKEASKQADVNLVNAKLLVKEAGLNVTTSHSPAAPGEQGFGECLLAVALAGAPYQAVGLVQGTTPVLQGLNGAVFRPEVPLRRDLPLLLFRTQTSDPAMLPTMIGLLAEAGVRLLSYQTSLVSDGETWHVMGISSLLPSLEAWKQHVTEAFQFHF
Experimental: PSAT was added to drive the reaction and to avoid product inhibition of hPHGDH.
(§1) The latter assay was used to determine the apparent kinetic parameters on alternative substrates.

[2] = target: T1, hPHGDH; parameters: His-tagged full-length hPHGDH was expressed in BL21(DE3) E. coli cells; made in house; host or cells: E. coli BL21(DE3); conditions: cited from earlier work
[3] = target: T1, hPHGDH; test: Effect of salts, phosphate and serine synthesis metabolites on hPHGDH activity (hydrazine assay); assay type: biochemical; parameters: His-tagged full-length hPHGDH was expressed in BL21(DE3) E. coli cells; made in house; host or cells: E. coli BL21(DE3); conditions: for decrease of hPHGDH activity: […] 3PG
Excerpt: The effects of KCl, NaCl, MgCl2 and CaCl2 and of pH and temperature on enzyme activity and stability were investigated using the hydrazine assay. […] The dependence of activity on pH was fitted using an equation for three pKa values, according to [44], providing apparent values unrelated to microscopic ones.

[4] = target: T1, hPHGDH; test: Temperature-ramp unfolding (melting temperature) with cofactors; assay type: binding; parameters: His-tagged full-length hPHGDH was expressed in BL21(DE3) E. coli cells; made in house; host or cells: E. coli BL21(DE3)
Experimental: Temperature-ramp experiments were performed in 10 mM potassium phosphate, pH 7.0. For this, a software-driven, Peltier-equipped fluorimeter was used to measure the protein fluorescence change at 330 nm or a CD spectropolarimeter to follow the CD signal at 280 nm in order to reproduce a temperature gradient (0.5 °C/min) [31].

[5] = target: T1, hPHGDH; test: Ligand binding by quenching of protein fluorescence at 330 nm
Experimental: Protein fluorescence spectra were measured at 0.06–0.1 mg/mL protein concentration in 10 mM potassium phosphate, pH 7.0, 15 °C; spectra were recorded using a Jasco FP-750 instrument and were corrected for the buffer contribution. Protein fluorescence spectra were recorded between 300 and 450 nm, with excitation at 280 and 298 nm.
All recorded spectra were subtracted for the contribution of the ligand (added to the buffer only) and were corrected for dilution at every addition. […] In all cases, Kd values were determined by fitting the data to a hyperbolic function.

[6] = target: T1, hPHGDH; test: Inhibition of hPHGDH activity by inhibitors (hydrazine assay); assay type: biochemical; parameters: His-tagged full-length hPHGDH was expressed in BL21(DE3) E. coli cells; made in house; host or cells: E. coli BL21(DE3); conditions: kinetics on 3PG at increasing inhibitor concentration
[7] = target: T1, hPHGDH; test: Limited proteolysis with trypsin, SDS-PAGE; parameters: His-tagged full-length hPHGDH was expressed in BL21(DE3) E. coli cells; made in house; host or cells: E. coli BL21(DE3); conditions: 5% (w/w) trypsin; 250 mM potassium phosphate, 500 mM sodium tartrate or 0.1 mM NCT-503
Experimental: hPHGDH at 0.4 mg/mL was incubated at 25 °C in 50 mM Hepes pH 7.5, 100 mM NaCl, 10% (v/v) glycerol, 1 mM EDTA and 5 mM 2-mercaptoethanol in the presence of 5% (w/w) trypsin (Roche, Basel, Switzerland). […] At different times (0, 30, 60, 120 and 240 min), 8 µg of protein was diluted in SDS-sample buffer, heated at 95 °C for 5 min and analyzed by SDS-PAGE.

[8] = target: T1, hPHGDH; test: hPHGDH reverse reaction kinetics (decrease in NADH fluorescence at 450 nm); conditions: reverse reaction, 5 mM NADH
Excerpt: as §1

[9] = test system: E. coli PHGDH; conditions: reverse reaction; cited from earlier work
[10] = substrate varied, […] NAD+, hydrazine assay, Figure S3B,D-F

Question: Which “maximal rate of Michaelis–Menten fit (numerator of y = a x/(b + x))” value ([1]; 3PG varied, 120 µM NAD+, PSAT-coupled assay, Figure S3A) does the source give for `O=C(O)C(O)COP(=O)(O)O` [3PG, D-3-phosphoglycerate] here?
Answer: The value was 1.282.

Question: What about the “maximal rate of Michaelis–Menten fit” value ([1]; 3PG varied, 120 µM NAD+, hydrazine assay, Figure S3A) of the same molecule?
Answer: Its value is 1.5348.

Question: What about the kcat ([1]; forward reaction, substrate varied, 120 µM NAD^+, PSAT-coupled (1) and hydrazine (2) assays, 37 °C, 25 mM Hepes pH 7.0, per monomer) of the same molecule?
Answer: Its kcat is 1.5 s⁻¹.

Question: What about the Km ([1]; forward reaction, substrate varied, 120 µM NAD^+, PSAT-coupled (1) and hydrazine (2) assays, 37 °C, pH 7.0) of the same molecule?
Answer: The Km was 260 µM.

Question: And the “maximal rate of Michaelis–Menten fit” value [1, 10]?
Answer: The value was 2.972.

Question: What about the Hill coefficient n ([2]; negative cooperativity in a previous work) of the same molecule?
Answer: Its Hill coefficient n is 0.63–0.67.

Question: For `CC(O)CC(=O)O` [D-3-Hydroxybutyrate], which “maximal rate of Michaelis–Menten fit” value [1, 10] is on record?
Answer: Its value is 2.527.

Question: For `C[C@@H](O)C(=O)O` [D-Lactate], which “maximal rate of Michaelis–Menten fit” value [1, 10] is on record?
Answer: Its value is 5.407.

Question: Which “maximal rate of Michaelis–Menten fit” value [1, 10] does the source give for `O=C(O)C[C@@H](O)C(=O)O` [D-Malate] here?
Answer: The value was 0.4351.

Question: For `O=C(O)[C@@H](O)[C@H](O)C(=O)O` [D-Tartrate], which “maximal rate of Michaelis–Menten fit” value [1, 10] is on record?
Answer: Its value is 0.4125.

Question: Which “decrease of hPHGDH activity” value ([3]; at 250 mM D-serine) does the source give for `N[C@H](CO)C(=O)O` [D-serine] here?
Answer: The value was ~ 25%.

Question: Which “decrease of hPHGDH activity” value ([3]; at 10 mM KCl, […] NAD+) does the source give for `[Cl-].[K+]` [KCl] here?
Answer: Its value is 40%.

Question: What about the initial activity lost ([3]; at ≥10 mM KCl) of the same molecule?
Answer: Its initial activity lost is 30%.

Question: What does the source list for `NC(=O)c1ccc[n+]([C@@H]2O[C@H](COP(=O)(O)OP(=O)(O)OC[C@H]3O[C@@H](n4cnc5c(N)ncnc54)[C@H](O)[C@@H]3O)[C@@H](O)[C@H]2O)c1` [NAD^+]?
Answer: maximal rate of Michaelis–Menten fit ([1]; NAD+ varied, 2.5 mM 3PG, PSAT-coupled assay, Figure S3C): 2.039; maximal rate of Michaelis–Menten fit ([1]; NAD+ varied, 2.5 mM 3PG, hydrazine assay, Figure S3C): 2.4118; Tm, circular dichroism signal at 280 nm ([4]; 120 µM NAD^+ or 100 µM NADH, protein alone 47.5): 48.2 °C; Tm, CD (220 nm) ([4]; +120 μM NAD^+ or +100 μM NADH, hPHGDH alone 47.2 ± 0.5): 48.2 ± 1.7 °C; Tm, Fluorescence (330 nm) ([4]; +120 μM NAD^+ or +100 μM NADH, hPHGDH alone 48.4 ± 2.1): 52.4 °C and 52.4 ± 0.4 °C; Kd ([5]; Kd (NAD^+; main phase of NADH binding), discussion value): ~130 µM; Kd ([5]; Kd, quenching of protein fluorescence at 15 °C, 1 μM enzyme, monophasic): 130 µM

Question: For `Cc1cc(C)nc(NC(=S)N2CCN(Cc3ccc(C(F)(F)F)cc3)CC2)c1` [NCT-503], which mechanism of inhibition [6] is on record?
Answer: The mechanism of inhibition was “noncompetitive inhibitor; also recorded: noncompetitive inhibition mechanism”.

Question: What about the “proteolysis of the full-length enzyme” value [7] of the same molecule?
Answer: The value was “to a lesser extent”.

Question: With `[Cl-].[Na+]` [NaCl] as the molecule, how does the initial activity lost ([3]; at >20 mM NaCl) read?
Answer: Its initial activity lost is 30%.

Question: Which “maximal rate of fit with substrate inhibition” value ([8]; Figure S4A,C,D) does the source give for `O=C(O)CC(=O)C(=O)O` [Oxaloacetate] here?
Answer: The value was 1.7591.

Question: What does the source list for `O=P(O)(O)O` [potassium phosphate]?
Answer: activity lost ([3]; at 1 mM potassium phosphate): 30%; effect on enzymatic activity ([3]; at 400 mM phosphate): fully abrogated; proteolysis of the full-length enzyme [7]: hampered

Question: Which “proteolysis of the full-length enzyme” value [7] does the source give for `O=C([O-])C(O)C(O)C(=O)[O-].[Na+].[Na+]` (centres unmarked) [sodium tartrate] here?
Answer: Its value is “hampered”.

Question: With `O=C(O)CCC(=O)C(=O)O` [α-Ketoglutarate] as the molecule, how does the Ki ([8]; Ki (substrate inhibition), 37 °C, pH 7.0) read?
Answer: Its Ki is 13300 µM.

Question: What about the Ki ([8]; Ki of fit with substrate inhibition, Figure S4A,C,D) of the same molecule?
Answer: Its Ki is 13300 µM.

Question: What about the Km [9] of the same molecule?
Answer: The Km was 500 µM.

Question: What about the Km ([2]; commercial enzyme preparation) of the same molecule?
Answer: Its Km is ~10000 µM.
